{
  "source": "patent US7138361B2",
  "about": "“Herbicidal heterocycles” (E. I. du Pont de Nemours and Company, priority 2000, dated 2006)",
  "format_in_all_cases": "in vivo",
  "key": {"[1]": {"tested_on": "Nightshade", "assay": "Test C preemergence", "conditions": "Rate 250 g/ha, visual evaluation after 12 to 14 days"}, "[2]": {"tested_on": "yellow nutsedge (Cyperus esculentus)", "assay": "Test C preemergence", "outline": "(§1)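 Test chemicals, formulated in a non-phytotoxic solvent mixture with surfactant, were applied preemergence to planted seeds or postemergence to plants 2 to 18 cm tall (1- to 4-leaf stage). After 12 to 14 days in a greenhouse, injury was visually rated against untreated controls on a 0–100 scale.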"}, "[3]": {"tested_on": "morningglory (Ipomoea hederacea)", "assay": "Test C preemergence", "outline": "as §1"}, "[4]": {"tested_on": "woolly cupgrass (Eriochloa villosa)", "assay": "Test C preemergence", "outline": "as §1"}, "[5]": {"tested_on": "crabgrass (Digitaria sanguinalis)", "assay": "Test C preemergence", "outline": "as §1"}, "[6]": {"tested_on": "pigweed (Amaranthus retroflexus)", "assay": "Test C preemergence", "outline": "as §1"}, "[7]": {"tested_on": "soybean (Glycine max)", "assay": "Test C preemergence", "outline": "as §1"}, "[8]": {"tested_on": "corn (Zea mays)", "assay": "Test C preemergence", "outline": "as §1"}, "[9]": {"tested_on": "giant foxtail (Setaria faberii)", "assay": "Test C preemergence", "outline": "as §1"}, "[10]": {"tested_on": "velvetleaf (Abutilon theophrasti)", "assay": "Test C preemergence", "outline": "as §1"}, "[11]": {"tested_on": "bermudagrass (Cynodon dactylon)", "assay": "Test C preemergence", "outline": "as §1"}, "[12]": {"tested_on": "lambsquarters (Chenopodium album)", "assay": "Test C preemergence", "outline": "as §1"}, "[13]": {"tested_on": "Sunflower", "assay": "Test C preemergence"}, "[14]": {"tested_on": "goosegrass (Eleusine indica)", "assay": "Test C preemergence", "outline": "as §1"}, "[15]": {"tested_on": "Nightshade", "assay": "Test C preemergence"}, "[16]": {"tested_on": "cocklebur (Xanthium strumarium)", "assay": "Test C preemergence", "outline": "as §1"}, "[17]": {"tested_on": "johnsongrass (Sorghum halepense)", "assay": "Test C preemergence", "outline": "as §1"}, "[18]": {"tested_on": "Surinam grass (Brachiaria decumbens)", "assay": "Test C preemergence", "outline": "as §1"}, "[19]": {"tested_on": "kochia (Kochia scoparia)", "assay": "Test C preemergence", "outline": "as §1"}, "[20]": {"tested_on": "rice (Oryza saliva)", "assay": "Test C flooded paddy test", "conditions": "for Rice plant response rating: Flooded Paddy, scale 0 to 100, 0 no effect, 100 complete control; for Plant response rating, Rice: flooded paddy test, scale 0 to 100 (0 no effect, 100 complete control)", "outline": "(§2)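 Response on a 0-to-100 scale (no effect to complete control) was assessed by eye versus controls. Plants had reached 2 leaves when treated in flooded paddy conditions. The assessment took place after 12–14 days of greenhouse growth.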"}, "[21]": {"tested_on": "duck salad (Heteranthera limosa)", "assay": "Test C flooded paddy test", "conditions": "for Ducksalad plant response rating: Flooded Paddy, scale 0 to 100, 0 no effect, 100 complete control; for Plant response rating, Ducksalad: flooded paddy test, scale 0 to 100 (0 no effect, 100 complete control)", "outline": "as §2"}, "[22]": {"tested_on": "smallflower flatsedge (Cyperus difformis)", "assay": "Test C flooded paddy test", "conditions": "for Flatsedge plant response rating: Flooded Paddy, scale 0 to 100, 0 no effect, 100 complete control; for Plant response rating, Flatsedge: flooded paddy test, scale 0 to 100 (0 no effect, 100 complete control)", "outline": "as §2"}, "[23]": {"conditions": "Preemergence, Rate 500 g/ha, scale 0 to 100"}, "[24]": {"conditions": "Rate 62 g/ha, scale 0 to 100, 0 no effect, 100 complete control"}, "[25]": {"conditions": "preemergence, Rate 250 g/ha, visual evaluation after 12 to 14 days"}, "[26]": {"conditions": "preemergence, Rate 125 g/ha, scale 0 to 100, 0 no effect, 100 complete control"}},
  "data": [
    {"smiles": "CC(C)(C)c1ccn(C2CCN(c3cccc(C(F)(F)F)c3)C2=S)n1", "note": "(stereo not shown) [Compound 22]", "values": [
      {"measurement": "Plant response rating (0 to 100), Nightshade", "setting": "[1]", "result": 40},
      {"measurement": "Plant response rating, Nutsedge", "setting": "[2]; [23]", "result": 20},
      {"measurement": "Plant response rating, Nutsedge", "setting": "[2]; [24]", "result": 0},
      {"measurement": "Plant response rating (0 to 100), Nutsedge", "setting": "[2]; [25]", "result": 0},
      {"measurement": "Plant response rating, Nutsedge", "setting": "[2]; [26]", "result": 0},
      {"measurement": "Plant response rating, Morningglory", "setting": "[3]; [23]", "result": 0},
      {"measurement": "Plant response rating, Morningglory", "setting": "[3]; [24]", "result": 0},
      {"measurement": "Plant response rating (0 to 100), Morningglory", "setting": "[3]; [25]", "result": 0},
      {"measurement": "Plant response rating, Morningglory", "setting": "[3]; [26]", "result": 0},
      {"measurement": "Plant response rating, Cupgrass, Woolly", "setting": "[4]; [23]", "result": 100},
      {"measurement": "Plant response rating, Cupgrass, Woolly", "setting": "[4]; [24]", "result": 40},
      {"measurement": "Plant response rating (0 to 100), Cupgrass, Woolly", "setting": "[4]; [25]", "result": 100},
      {"measurement": "Plant response rating, Cupgrass, Woolly", "setting": "[4]; [26]", "result": 70},
      {"measurement": "Plant response rating, Crabgrass", "setting": "[5]; [23]", "result": 100},
      {"measurement": "Plant response rating, Crabgrass", "setting": "[5]; [24]", "result": 50},
      {"measurement": "Plant response rating (0 to 100), Crabgrass", "setting": "[5]; [25]", "result": 100},
      {"measurement": "Plant response rating, Crabgrass", "setting": "[5]; [26]", "result": 100},
      {"measurement": "Plant response rating, Pigweed", "setting": "[6]; [23]", "result": 100},
      {"measurement": "Plant response rating, Pigweed", "setting": "[6]; [24]", "result": 100},
      {"measurement": "Plant response rating (0 to 100), Pigweed", "setting": "[6]; [25]", "result": 50},
      {"measurement": "Plant response rating, Pigweed", "setting": "[6]; [26]", "result": 50},
      {"measurement": "Plant response rating, Soybean", "setting": "[7]; [23]", "result": 40},
      {"measurement": "Plant response rating, Soybean", "setting": "[7]; [24]", "result": 30},
      {"measurement": "Plant response rating (0 to 100), Soybean", "setting": "[7]; [25]", "result": 40},
      {"measurement": "Plant response rating, Soybean", "setting": "[7]; [26]", "result": 40},
      {"measurement": "Plant response rating, Corn", "setting": "[8]; [23]", "result": 30},
      {"measurement": "Plant response rating, Corn", "setting": "[8]; [24]", "result": 20},
      {"measurement": "Plant response rating (0 to 100), Corn", "setting": "[8]; [25]", "result": 20},
      {"measurement": "Plant response rating, Corn", "setting": "[8]; [26]", "result": 20},
      {"measurement": "Plant response rating, Foxtail, Giant", "setting": "[9]; [23]", "result": 100},
      {"measurement": "Plant response rating, Foxtail, Giant", "setting": "[9]; [24]", "result": 30},
      {"measurement": "Plant response rating (0 to 100), Foxtail, Giant", "setting": "[9]; [25]", "result": 0},
      {"measurement": "Plant response rating, Foxtail, Giant", "setting": "[9]; [26]", "result": 0},
      {"measurement": "Plant response rating, Velvetleaf", "setting": "[10]; [23]", "result": 0},
      {"measurement": "Plant response rating, Velvetleaf", "setting": "[10]; [24]", "result": 0},
      {"measurement": "Plant response rating (0 to 100), Velvetleaf", "setting": "[10]; [25]", "result": 0},
      {"measurement": "Plant response rating, Velvetleaf", "setting": "[10]; [26]", "result": 0},
      {"measurement": "Plant response rating, Bermudagrass", "setting": "[11]; [23]", "result": 100},
      {"measurement": "Plant response rating, Bermudagrass", "setting": "[11]; [24]", "result": 30},
      {"measurement": "Plant response rating (0 to 100 where 0 is no effect and 100 is complete control), Bermudagrass", "setting": "[11]; [25]", "result": 100},
      {"measurement": "Plant response rating, Bermudagrass", "setting": "[11]; [26]", "result": 100},
      {"measurement": "Plant response rating, Lambsquarters", "setting": "[12]; [23]", "result": 100},
      {"measurement": "Plant response rating, Lambsquarters", "setting": "[12]; [24]", "result": 100},
      {"measurement": "Plant response rating (0 to 100), Lambsquarters", "setting": "[12]; [25]", "result": 100},
      {"measurement": "Plant response rating, Lambsquarters", "setting": "[12]; [26]", "result": 100},
      {"measurement": "Plant response rating, Sunflower", "setting": "[13]; [24]", "result": 0},
      {"measurement": "Plant response rating, Sunflower", "setting": "[13]; Rate 500 g/ha, scale 0 to 100", "result": 0},
      {"measurement": "Plant response rating, Goosegrass", "setting": "[14]; [23]", "result": 100},
      {"measurement": "Plant response rating, Goosegrass", "setting": "[14]; [24]", "result": 90},
      {"measurement": "Plant response rating (0 to 100), Goosegrass", "setting": "[14]; [25]", "result": 100},
      {"measurement": "Plant response rating, Goosegrass", "setting": "[14]; [26]", "result": 90},
      {"measurement": "Plant response rating, Nightshade", "setting": "[15]; [24]", "result": 0},
      {"measurement": "Plant response rating, Nightshade", "setting": "[15]; Rate 125 g/ha, scale 0 to 100, 0 no effect, 100 complete control", "result": 0},
      {"measurement": "Plant response rating, Nightshade", "setting": "[15]; Rate 500 g/ha, scale 0 to 100", "result": 80},
      {"measurement": "Plant response rating, Cocklebur", "setting": "[16]; [23]", "result": 0},
      {"measurement": "Plant response rating, Cocklebur", "setting": "[16]; [24]", "result": 0},
      {"measurement": "Plant response rating (0 to 100), Cocklebur", "setting": "[16]; [25]", "result": 0},
      {"measurement": "Plant response rating, Cocklebur", "setting": "[16]; [26]", "result": 0},
      {"measurement": "Plant response rating, Johnsongrass", "setting": "[17]; [23]", "result": 40},
      {"measurement": "Plant response rating, Johnsongrass", "setting": "[17]; [24]", "result": 20},
      {"measurement": "Plant response rating (0 to 100), Johnsongrass", "setting": "[17]; [25]", "result": 40},
      {"measurement": "Plant response rating, Johnsongrass", "setting": "[17]; [26]", "result": 30},
      {"measurement": "Plant response rating, Surinam grass", "setting": "[18]; [23]", "result": 90},
      {"measurement": "Plant response rating, Surinam grass", "setting": "[18]; [24]", "result": 0},
      {"measurement": "Plant response rating (0 to 100), Surinam grass", "setting": "[18]; [25]", "result": 60},
      {"measurement": "Plant response rating, Surinam grass", "setting": "[18]; [26]", "result": 40},
      {"measurement": "Plant response rating, Kochia", "setting": "[19]; [23]", "result": 100},
      {"measurement": "Plant response rating, Kochia", "setting": "[19]; [24]", "result": 100},
      {"measurement": "Plant response rating (0 to 100), Kochia", "setting": "[19]; [25]", "result": 100},
      {"measurement": "Plant response rating, Kochia", "setting": "[19]; [26]", "result": 100},
      {"measurement": "Rice plant response rating", "setting": "[20]; Rate 250 g/ha", "result": 20},
      {"measurement": "Rice plant response rating", "setting": "[20]; Rate 500 g/ha", "result": 40},
      {"measurement": "Plant response rating, Rice", "setting": "[20]; Rate 62 g/ha", "result": 20},
      {"measurement": "Plant response rating, Rice", "setting": "[20]; Rate 125 g/ha", "result": 20},
      {"measurement": "Ducksalad plant response rating", "setting": "[21]; Rate 250 g/ha", "result": 80},
      {"measurement": "Ducksalad plant response rating", "setting": "[21]; Rate 500 g/ha", "result": 100},
      {"measurement": "Plant response rating, Ducksalad", "setting": "[21]; Rate 62 g/ha", "result": 50},
      {"measurement": "Plant response rating, Ducksalad", "setting": "[21]; Rate 125 g/ha", "result": 80},
      {"measurement": "Flatsedge plant response rating", "setting": "[22]; Rate 250 g/ha", "result": 100},
      {"measurement": "Flatsedge plant response rating", "setting": "[22]; Rate 500 g/ha", "result": 100},
      {"measurement": "Plant response rating, Flatsedge", "setting": "[22]; Rate 62 g/ha", "result": 100},
      {"measurement": "Plant response rating, Flatsedge", "setting": "[22]; Rate 125 g/ha", "result": 100}
    ]}
  ]
}
